In PubChem BioAssay (NCI):
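Results reflect a 48-hour exposure of cells in 96-well plates to compound at five concentrations. GI50 is the concentration that inhibits growth by half. TGI is the concentration that stops growth completely.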

Key:
Assay in all cases: DTP human tumour cell line panel, 48 h
[1] = system: HS 578T breast
[2] = system: KM12 colon
[3] = system: NCI-H226 lung
[4] = system: NCI-H23 lung
[5] = system: DU-145 prostate
[6] = system: SNB-19 CNS
[7] = system: MCF7 breast
[8] = system: RPMI-8226 leukemia
[9] = system: HCT-15 colon
[10] = system: HOP-62 NSCLC
[11] = system: OVCAR-4 ovarian
[12] = system: SF-539 CNS
[13] = system: SNB-75 CNS
[14] = system: OVCAR-8 ovarian
[15] = system: MDA-MB-231 breast
[16] = system: 786-0 renal
[17] = system: NCI/ADR-RES ovarian
[18] = system: NCI-H460 lung
[19] = system: MALME-3M melanoma
[20] = system: SK-MEL-28 melanoma
[21] = system: PC-3 prostate
[22] = system: HT29 colon
[23] = system: COLO 205 colon
[24] = system: OVCAR-3 ovarian
[25] = system: NCI-H522 lung
[26] = system: LOX IMVI melanoma
[27] = system: SR leukemia
[28] = system: A498 renal
[29] = system: EKVX NSCLC
[30] = system: K-562 leukemia
[31] = system: UACC-62 melanoma
[32] = system: U251 CNS
[33] = system: OVCAR-5 ovarian
[34] = system: CCRF-CEM leukemia
[35] = system: HCT-116 colon
[36] = system: MOLT-4 leukemia
[37] = system: UO-31 renal
[38] = system: SF-268 CNS
[39] = system: SW-620 colon
[40] = system: SK-MEL-2 melanoma
[41] = system: HCC-2998 colon
[42] = system: SK-OV-3 ovarian
[43] = system: ACHN renal
[44] = system: SF-295 CNS
[45] = system: CAKI-1 renal
[46] = system: IGROV1 ovarian
[47] = system: BT-549 breast
[48] = system: M14 melanoma
[49] = system: SK-MEL-5 melanoma
[50] = system: SN12C renal
[51] = system: RXF 393 renal
[52] = system: MDA-MB-435
[53] = system: A549 NSCLC
[54] = system: UACC-257 melanoma
[55] = system: HL-60(TB) leukemia
[56] = system: HOP-92 NSCLC
[57] = system: TK-10 renal
[58] = system: T-47D breast

## COc1cc2c(/C=C3\C(=O)N(C)c4ccccc43)c[nH]c2cc1C
[1]
  GI50: 3.61 µM
  TGI: > 38.8 µM
[2]
  GI50: 0.735 µM
  TGI: > 100 µM
[3]
  GI50: 20.3 µM
  TGI: > 58.1 µM
[4]
  GI50: 5.33 µM
  TGI: > 67.9 µM
[5]
  GI50: 6.77 µM
  TGI: > 66.3 µM
[6]
  GI50: 4.15 µM
  TGI: > 100 µM
[7]
  GI50: 0.12 µM
  TGI: > 100 µM
[8]
  GI50: 1.42 µM
  TGI: > 20.1 µM
[9]
  GI50: 0.33 µM
  TGI: > 100 µM
[10]
  GI50: 2.23 µM
  TGI: 39.3 µM
[11]
  GI50: > 100 µM
  TGI: > 100 µM
[12]
  GI50: 4.2 µM
  TGI: > 31.2 µM
[13]
  GI50: 4.34 µM
  TGI: > 100 µM
[14]
  GI50: 4.14 µM
  TGI: 45.1 µM
[15]
  GI50: 2.05 µM
  TGI: > 100 µM
[16]
  GI50: 4.43 µM
  TGI: > 59.6 µM
[17]
  GI50: 0.65 µM
  TGI: 23.3 µM
[18]
  TGI: > 37.1 µM
[19]
  GI50: 1 µM
  TGI: > 53.9 µM
[20]
  GI50: > 22.4 µM
  TGI: > 100 µM
[21]
  GI50: 2.56 µM
  TGI: > 100 µM
[22]
  GI50: 0.36 µM
[23]
  GI50: 1.58 µM
  TGI: > 100 µM
[24]
  GI50: 3.27 µM
  TGI: 9.78 µM
[25]
  GI50: 8.82 µM
  TGI: > 87.5 µM
[26]
  GI50: 0.869 µM
  TGI: > 47.9 µM
[27]
  GI50: 2.07 µM
  TGI: 14.2 µM
[28]
  GI50: 4.96 µM
  TGI: 48.9 µM
[29]
  GI50: 8.81 µM
  TGI: > 100 µM
[30]
  GI50: 1.68 µM
  TGI: > 100 µM
[31]
  GI50: 1.29 µM
  TGI: > 100 µM
[32]
  GI50: 0.499 µM
  TGI: 29.6 µM
[33]
  GI50: 7.94 µM
  TGI: > 63.9 µM
[34]
  GI50: 0.957 µM
  TGI: 18.8 µM
[35]
  GI50: 0.369 µM
  TGI: > 41.7 µM
[36]
  GI50: 5.83 µM
  TGI: > 64 µM
[37]
  GI50: 11.5 µM
  TGI: > 62 µM
[38]
  GI50: 0.103 µM
  TGI: > 43.9 µM
[39]
  GI50: 1.68 µM
  TGI: > 100 µM
[40]
  GI50: 10.2 µM
  TGI: > 84.1 µM
[41]
  GI50: 1.79 µM
  TGI: > 68.3 µM
[42]
  GI50: 8.35 µM
  TGI: > 100 µM
[43]
  GI50: 3.61 µM
  TGI: 55.7 µM
[44]
  GI50: 0.374 µM
  TGI: 15.6 µM
[45]
  GI50: 2.01 µM
  TGI: 51.3 µM
[46]
  GI50: 7.87 µM
  TGI: > 69.6 µM
[47]
  GI50: 7.53 µM
  TGI: 71.9 µM
[48]
  GI50: 0.541 µM
  TGI: > 100 µM
[49]
  GI50: 2.36 µM
  TGI: > 40 µM
[50]
  GI50: 2 µM
  TGI: > 73.5 µM
[51]
  GI50: 2.56 µM
  TGI: 69.9 µM
[52]
  GI50: 1.62 µM
  TGI: 12.1 µM
[53]
  GI50: 2.39 µM
  TGI: > 66.8 µM
[54]
  GI50: 23.5 µM
  TGI: > 100 µM
[55]
  GI50: 2.53 µM
  TGI: 84.8 µM
[56]
  GI50: 15.7 µM
  TGI: 79.4 µM
[57]
  GI50: 10.5 µM
  TGI: 70.5 µM
[58]
  GI50: > 39.3 µM
  TGI: > 100 µM
